# In patent US11447531B2, “Cleavable peptides and insecticidal and nematicidal proteins comprising same” (Vestaron Corporation, priority 2016, dated 2022):
# Tested on: gut enzymes of Southern Corn Rootworm
# Assay: FRET peptide cleavage by coleopteran gut enzymes (COLEOP)
# Settings: COLEOP (X); pooled FRET screening Round 1; slope of fluorescence over 10 minutes, steepest slope = 100%; representative cleavable sequences
row,Substance,% of Max Slope
1,IRT,68%
2,QLK,74%
3,INK,56%
4,NIR,74%
5,LRQ,100%
6,IQK,56%
7,ALK,70%
8,LNK,56%
9,LKQ,100%
10,KLK,83%
11,VLK,70%
12,RLK,83%
13,IKQ,100%
14,LQK,56%
15,LRN,100%
16,KIK,83%
17,IQR,56%
18,RLR,83%
19,QLR,74%
20,IKS,68%
21,AIR,70%
22,LKN,100%
23,LNR,56%
24,VIR,70%
25,IRS,68%

row,Substance,% of Max Slope
1,VIK,70%
2,INR,56%
3,LKT,68%
4,ALR,70%
5,KLR,83%
6,LRT,68%
7,LQR,56%
8,RIR,83%
9,RIK,83%
10,VLR,70%
11,NIK,74%
12,LRS,68%
13,KIR,83%
14,IRQ,100%
15,QIK,74%
16,IKT,68%
17,QIR,74%
18,IKN,100%
19,AIK,70%
20,IKV,56%
21,NLK,74%
22,NLR,74%
23,IRN,100%
24,LKS,68%
25,IKA,56%

# Same assay, conditions: COLEOP (X); pooled FRET screening; failed cleavable sequences
row,Substance,% of Max Slope
1,IKQ,0%
2,LKN,−2%
3,IRQ,0%
4,IKN,0%
5,IRN,0%

# Same assay, conditions: insect (COLEOP) simulated gut environment
row,Substance,COLEOP cleavage (in words)
1,IFVRLR (cleavable linker),rapid
2,ALKLFV (cleavable linker),rapid

# Tested on: CEW gut extract
# Assay: not given
# Format: biochemical, Helicoverpa zea
# Settings: not given
row,Substance,cleavage of linking peptide in CEW gut extract (His-tagged western blot)
1,IFVRLRGS (cleavable linker),digestion and disappearance of the protein band
2,ALKLFVGS (cleavable linker),digestion and disappearance of the protein band
3,"IGER (listed as Pisum sativum) [control peptide that is only cleaved in insects, reference compound]",only cleaves in the CEW gut extract

# Tested on: gut enzymes of Corn Earworm
# Assay: FRET peptide cleavage by lepidopteran gut enzymes (LEP)
# Format: biochemical, Helicoverpa zea
# Settings: LEP (X); pooled FRET screening Round 1; slope of fluorescence over 10 minutes, steepest slope = 100%; representative cleavable sequences
# Text: Corn Earworm insects were obtained commercially from Benzon Research (Carlisle, Pa.) as eggs. Hatched larvae were raised on artificial diet until ⅘^th instar (20 mm long) before guts were isolated. Before gut extract, larvae were anesthetized using CO2. The larva was then pinned on the dissection plate at both the head and the tail. Using dissection scissors, the cuticle was nicked. The dissection scissors were then inserted into the nick and the […] along the insect. The cuticle was then carefully pulled back and pinned open to reveal the digestive track. Using DI water, the insect was thoroughly rinsed to remove hemolymph. The gut was then excised with tweezers and placed in a solution of 500 μL of 200 mM Tris-HCl pH 8.1 150 mM NaCl (assay buffer). The tube was pre-weighed and post-weighed to calculate the total amount of gut added. CEW gut was diluted to a stock concentration of 7 mg/ml (10×) in 200 mM Tris-HCl pH 8.1 150 mM NaCl. This was diluted fresh each plate by 20× with the assay buffer.
row,Substance,% of Max Slope
1,AKF,93%
2,VRF,93%
3,KTR,90%
4,ARY,93%
5,KKS,93%
6,ARF,93%
7,KTK,90%
8,RTK,90%
9,KRT,93%
10,PKK,100%
11,ARS,90%
12,RRS,93%
13,KKT,93%
14,ITK,89%
15,ISR,89%
16,RKF,92%
17,KKY,92%
18,AKT,90%
19,VRT,90%
20,ITR,89%
21,RRY,92%
22,PRR,100%
23,VRY,93%
24,VKF,93%
25,KSK,90%

row,Substance,% of Max Slope
1,PKR,100%
2,KRF,92%
3,ISK,89%
4,KSR,90%
5,VRS,90%
6,RKY,92%
7,RRT,93%
8,VKS,90%
9,AKS,90%
10,RSR,90%
11,VKY,93%
12,KRS,93%
13,LSK,89%
14,RTR,90%
15,AKY,93%
16,VKT,90%
17,RRF,92%
18,RKT,93%
19,KKF,92%
20,PRK,100%
21,RKS,93%
22,RSK,90%
23,LTR,89%
24,KRY,92%
25,ART,90%

# Same assay, conditions: LEP (X); pooled FRET screening; failed cleavable sequences
row,Substance,% of Max Slope
1,PKK,0%
2,PRR,0%
3,VRY,0%
4,PKR,0%
5,PRK,0%

# Same assay, conditions: insect (LEP) simulated gut environment
row,Substance,LEP cleavage (in words)
1,IFVRLR (cleavable linker),rapid
2,ALKLFV (cleavable linker),rapid

# Molecular target: T1, pepsin from porcine gastric mucosa (Sus scrofa, UniProt P00791)
# T1 construct: from tissue; host or cells: porcine gastric mucosa
# Assay: not given
# Format: biochemical
# Settings: not given
# T1 sequence (P00791 60-385): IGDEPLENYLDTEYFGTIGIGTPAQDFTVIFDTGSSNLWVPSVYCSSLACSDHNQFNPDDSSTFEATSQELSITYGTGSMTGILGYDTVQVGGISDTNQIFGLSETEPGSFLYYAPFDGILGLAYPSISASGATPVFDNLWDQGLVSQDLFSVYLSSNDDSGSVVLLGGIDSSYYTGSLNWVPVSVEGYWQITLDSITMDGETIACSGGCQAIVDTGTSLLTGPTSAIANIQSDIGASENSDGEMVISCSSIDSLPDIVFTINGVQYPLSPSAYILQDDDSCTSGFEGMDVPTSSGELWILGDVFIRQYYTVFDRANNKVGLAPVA
row,Substance,cleavage of linking peptide in SGF (His-tagged western blot)
1,IFVRLRGS (cleavable linker),digestion and disappearance of the protein band
2,ALKLFVGS (cleavable linker),digestion and disappearance of the protein band
3,"IGER (listed as Pisum sativum) [control peptide that is only cleaved in insects, reference compound]",retention of the intact protein band

# Molecular target: T2, pepsin or simulated human gastric fluid (SGF) (Sus scrofa, UniProt P00791)
# T2 construct: purchased Sigma P6887
# Assay: not given
# Format: biochemical
# Settings: not given
# T2 sequence (P00791 60-385): as above
Substance,% of Max Slope,"% of Max Slope, Y",SGF cleavage (in words),cleavability by human gastrointestinal proteases
LFV,65%,,,
LYA,65%,,,
VFY,63%,,,
VLY,78%,,,
FYV,84%,,,
LRLFVGS (cleavable linker),,75%,,
LYV,65%,,,
YFA,84%,,,
FYA,84%,,,
LFA,65%,,,
AIF,78%,,,
YYL,78%,,,
LYF,100%,,,
ILY,63%,,,
YFI,78%,,,
YFV,84%,,,
LIY,63%,,,
LLF,63%,,,
DFF,66%,,,
ALF,78%,,,
FFL,78%,,,
ALY,78%,,,
EFF,66%,,,
FFV,84%,,,
VIF,78%,,,
LIF,63%,,,
EYF,66%,,,

Substance,% of Max Slope,"% of Max Slope, Y",SGF cleavage (in words),cleavability by human gastrointestinal proteases
DYF,66%,,,
LYY,100%,,,
FFI,78%,,,
IFV,65%,,,
ALKLFVGS (cleavable linker),,88%,,
FYL,78%,,,
EFY,66%,,,
VLF,78%,,,
LFVRLRGS (cleavable linker),,74%,,
ILF,63%,,,
IFVALKGS (cleavable linker),,88%,,
AYF,63%,,,
VFF,63%,,,
IFVRLR (cleavable linker),,,rapid,
AAPF [reference compound],,,,neither FRET nor protein showed any cleavability
FYI,78%,,,
IIF,63%,,,
DFY,66%,,,
ALKLFV (cleavable linker),,,rapid,
IFA,65%,,,
AFY,63%,,,
VYF,63%,,,
LFVALKGS (cleavable linker),,76%,,
AFF,63%,,,
LKLFVGS (cleavable linker),,67%,,
YFL,78%,,,
FFA,84%,,,

# Tested on: insect and/or nematode protease (X condition)
# Assay: Round 2 and spacer FRET cleavage, X (insect) cleavage condition
# Format: biochemical
# Settings: Round 2 FRET, X-Y combinations
# Method: Round 2 data from FRET molecules that represented a subset of binary combinations based on the observed top hits in Round 1 provided a hierarchical ranking of the various binary combinations. Round 2 FRET molecules were synthesized, resuspended, and tested in cleavage enzyme assays as described above in Round 1. Many combinations of binary cleavable linking peptides were tested against LEP, COLEOP and SGF conditions.
# Data from the Round 2 FRET that exemplifies the combination of both X and Y cleavability in a binary or tertiary peptide are presented in Table 6.
# To screen for potential spacers, FRET peptides were ordered as the binary peptide ALKLFVZ1Z2 and varied amino acids in positions Z1 and Z2. Some of the amino acids were screened as individuals and some were screened as pools. The peptides were re-suspended using 50% acetonitrile in water at a concentration of 2 μM of each peptide. For the one containing more than one FRET peptide, they were re-suspended so that each peptide was as 2 μM (assuming an equal portion of each one). These were then re-suspended and screened as described above for Round 1. The data does confirm that some amino acids in the Z position are more favorable than others. […] The greater the value of the slope in Table 7 the greater the activity of the amino acid when part of a spacer. The column in Table 7 labeled “Slope” indicates the speed of cleavage of the Linker.
row,Substance,"% of Max Slope, X"
1,LRLFVGS (cleavable linker),74%
2,ALKLFVGS (cleavable linker),100%
3,LFVRLRGS (cleavable linker),94%
4,IFVALKGS (cleavable linker),69%
5,LFVALKGS (cleavable linker),92%
6,LKLFVGS (cleavable linker),98%

# Tested on: gut extract isolated from Southern Corn Rootworm
# Assay: not given
# Format: biochemical, Diabrotica undecimpunctata
# Settings: not given
row,Substance,cleavage of linking peptide in SCR gut extract (His-tagged western blot)
1,IFVRLRGS (cleavable linker),digestion and disappearance of the protein band
2,ALKLFVGS (cleavable linker),digestion and disappearance of the protein band
3,"IGER (listed as Pisum sativum) [control peptide that is only cleaved in insects, reference compound]",retention of the intact protein band
